Laboratory results published in patent US12674148B2, “Cell-based reporter assay for screening inhibitors of coronavirus RNA-dependent RNA polymerase activity” (priority 2020, dated 2026).
Entries after “also recorded” stand apart in the source; their conditions may differ.

How the values were obtained:
HEK293T cells = assay: cytotoxicity / cell viability (CellTiter 96 AQueous One Solution)
MERS-CoV RdRp = MERS-CoV RdRp (Middle East respiratory syndrome-related coronavirus, UniProt K9N7C7); assay: cell-based; conditions: for inhibition at 100 µM: read-out: inhibition / reduction of MERS-CoV RdRp activity
Sequence of MERS-CoV RdRp (K9N7C7 4378-5310 limits assumed): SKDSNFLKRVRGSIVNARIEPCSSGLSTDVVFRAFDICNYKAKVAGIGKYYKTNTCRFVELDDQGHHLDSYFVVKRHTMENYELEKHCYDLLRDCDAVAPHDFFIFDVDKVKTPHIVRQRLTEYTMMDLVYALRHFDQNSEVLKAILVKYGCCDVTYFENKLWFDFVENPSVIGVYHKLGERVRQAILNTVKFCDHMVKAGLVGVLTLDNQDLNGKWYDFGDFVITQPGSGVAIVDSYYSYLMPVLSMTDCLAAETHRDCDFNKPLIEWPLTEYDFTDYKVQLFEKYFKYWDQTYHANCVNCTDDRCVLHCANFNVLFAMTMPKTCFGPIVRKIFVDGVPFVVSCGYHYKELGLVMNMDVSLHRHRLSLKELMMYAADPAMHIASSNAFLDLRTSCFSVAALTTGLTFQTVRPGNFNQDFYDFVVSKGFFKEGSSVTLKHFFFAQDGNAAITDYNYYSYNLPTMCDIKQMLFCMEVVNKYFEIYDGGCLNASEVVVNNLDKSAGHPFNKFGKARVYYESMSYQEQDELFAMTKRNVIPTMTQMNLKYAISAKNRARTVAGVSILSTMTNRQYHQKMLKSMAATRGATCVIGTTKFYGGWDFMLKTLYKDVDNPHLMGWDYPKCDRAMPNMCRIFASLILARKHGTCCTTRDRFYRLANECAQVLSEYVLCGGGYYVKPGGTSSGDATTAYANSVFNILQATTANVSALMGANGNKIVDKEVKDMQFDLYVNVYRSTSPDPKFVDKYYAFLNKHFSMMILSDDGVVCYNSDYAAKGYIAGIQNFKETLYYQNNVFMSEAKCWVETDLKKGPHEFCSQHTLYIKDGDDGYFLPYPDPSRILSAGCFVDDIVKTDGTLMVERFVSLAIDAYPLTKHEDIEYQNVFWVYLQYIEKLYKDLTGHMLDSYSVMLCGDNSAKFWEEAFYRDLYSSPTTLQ

[1] = HEK-293T, read-out: MERS-CoV RdRp activity (%)

| SMILES | effect on MERS-CoV RdRp activity (in words) (MERS-CoV RdRp) | activity at 100 µM (MERS-CoV RdRp; [1]) | inhibition at 100 µM (MERS-CoV RdRp; HEK-293T) | also measured |
| --- | --- | --- | --- | --- |
| COc1c(-c2ccc3cc(NS(C)(=O)=O)ccc3c2)cc(-n2ccc(=O)[nH]c2=O)cc1C(C)(C)C [dasabuvir] | significantly inhibited, but not completely inhibited | – | – | cytotoxicity (HEK293T cells; HEK293T cells, 10 μM, 18 hours): no cytotoxicity was observed; concentration at which cytotoxicity was reduced by half (HEK293T cells; HEK293T cells, 18 hours): 27.143 µM; cytotoxicity (HEK293T cells; HEK293T cells, concentration exceeding 10 μM, 18 hours): cytotoxicity was observed; IC50 (MERS-CoV RdRp): 11.6 µM; reduction of MERS-CoV RdRp activity (MERS-CoV RdRp): about 50%; activity at 10 µM (MERS-CoV RdRp; [1]): 51.5 ± 4.2% |
| NC(=O)c1nc(F)c[nH]c1=O [favipiravir] | no significant effect | 85.8 ± 2.4% | ~10% | – |
| Nc1ccn([C@@H]2CS[C@H](CO)O2)c(=O)n1 [lamivudine] | – | 98.3 ± 1.2% | – | – |
| CCC(CC)COC(=O)[C@H](C)N[P@](=O)(OC[C@H]1O[C@@](C#N)(c2ccc3c(N)ncnn23)[C@H](O)[C@@H]1O)Oc1ccccc1 [remdesivir] | – | – | – | cytotoxicity (HEK293T cells; HEK293T cells, 12 μM): no cytotoxicity was observed; IC50 (MERS-CoV RdRp): 5.028 ± 0.035 µM; activity at 12 µM (MERS-CoV RdRp; [1]): 22.3 ± 0.3% |
| NC(=O)c1ncn([C@@H]2O[C@H](CO)[C@@H](O)[C@H]2O)n1 [ribavirin] | no significant effect | 60.3 ± 2.9% | ~40% | – |
| CC(C)OC(=O)[C@H](C)N[P@](=O)(OC[C@H]1O[C@@H](n2ccc(=O)[nH]c2=O)[C@](C)(F)[C@@H]1O)Oc1ccccc1 [sofosbuvir] | no significant effect | 62.4 ± 5.3% | ~40% | – |
| CC(C)[C@H](N)C(=O)OCCOCn1cnc2c(=O)[nH]c(N)nc21 [valacyclovir] | did not reduce; also recorded: no significant effect | 90.2 ± 3.2% | – | – |
| Nc1ncnc2c1ncn2[C@@H]1O[C@H](CO)[C@@H](O)[C@@H]1O [vidarabine] | did not reduce; also recorded: did not affect the NLuc/FLuc ratio or MERS-CoV RdRp activity; also recorded: no significant effect | 89.9 ± 2.9% | – | cytotoxicity (HEK293T cells; concentration not stated (tested up to 100 μM)): did not show cytotoxicity; FLuc activity (internal control) (MERS-CoV RdRp): reduced in a concentration-dependent manner; NLuc activity (MERS-CoV RdRp): reduced in a concentration-dependent manner |
| Cc1cn([C@H]2C[C@H](N=[N+]=[N-])[C@@H](CO)O2)c(=O)[nH]c1=O [zidovudine] | did not reduce; also recorded: no significant effect | 111 ± 3.7% | – | – |
